We go through 14 compounds from US8026359B2, “Fungicidal heterocyclic amines” (E.I. du Pont de Nemours and Company, priority 2007, dated 2011).

Each structure is given as a SMILES string. Marks after values point to notes of the source that are not given here.

Type in all cases: in vivo
Assay [1] deals with Septoria nodorum. Put plainly: Test C: wheat glume blotch, preventive spray on wheat seedlings. Conditions: 200 ppm, 100 = 100% disease control, 0 = no control relative to controls; for pest or weed control at 200 ppm: Parastagonospora nodorum, 216 h, read-out: Test C disease control rating. The essentials: (§1)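 Spray suspensions: compound in acetone at 3% of final volume, diluted into acetone:water 1:1 containing 250 ppm polyhydric alcohol ester surfactant. Applied to run-off at 40 or 200 ppm; the higher level corresponds to 500 g/ha.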

Assay [2] concerns Puccinia recondita f. sp. tritici. Put plainly: Test B: wheat leaf rust, preventive spray on wheat seedlings. Conditions: 200 ppm, 100 = 100% disease control, 0 = no control relative to controls; for pest or weed control at 200 ppm: Puccinia recondita, 192 h, read-out: Test B disease control rating. The method in brief:
as §1

Assay [3] deals with Alternaria solani. In words: Test H: tomato early blight, preventive spray on seedlings. Conditions: for pest or weed control at 200 ppm: Alternaria solani, 168 h, read-out: Test H disease control rating. An excerpt: General protocol for preparing test suspensions for Tests A-R: The test compounds were first dissolved in acetone in an amount equal to 3% of the final volume and then suspended at the desired concentration (in ppm) in acetone and purified water (50/50 mix) containing 250 ppm of the surfactant Trem® 014 (polyhydric alcohol esters). The resulting test suspensions were then used in tests A-R. In Tests A-M, compounds were sprayed as a 200 ppm test suspension (equivalent to a rate of 500 g/ha) or as a 40 ppm test suspension to the point of runoff on the test plants. In Tests N-R, compounds were sprayed as a 100 g/ha test suspension (equivalent to a rate of 100 ppm) on the test plants at an application volume of 1000 L/ha. The test suspension was sprayed to the point of run-off on wheat seedlings.

For assay [4], the system named is Botrytis cinerea. In words: Test F: tomato Botrytis, preventive spray on tomato seedlings. The following applies: for pest or weed control at 200 ppm: Botrytis cinerea, 120 h, read-out: Test F disease control rating. The method in brief: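 Compounds dissolved in acetone (3% of final volume), suspended in 50/50 acetone/water with 250 ppm Trem® 014. Sprayed preventively to run-off on tomato seedlings at 200 ppm (500 g/ha) or 40 ppm.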

In assay [5] the test system is Erysiphe graminis f. sp. tritici. In words: Test A: wheat powdery mildew, preventive spray on wheat seedlings. Conditions: 200 ppm; 100 = 100% disease control, 0 = no control relative to controls. The method in brief: as §1
Assay [6] concerns Fusarium graminearum. Put plainly: whole plant or invertebrate. The following applies: for pest or weed control at 200 ppm: Fusarium graminearum, in Triticum aestivum, 192 h, read-out: Test E disease control rating.
Assay [7] has as its system Septoria tritici. Put plainly: Test D: wheat leaf blotch, preventive spray on wheat seedlings. The following applies: 200 ppm, 100 = 100% disease control, 0 = no control relative to controls; for pest or weed control at 200 ppm: Zymoseptoria tritici, 504 h, read-out: Test D disease control rating. The essentials: as §1
For assay [8], the system named is Colletotrichum orbiculare. In words: Test I: cucumber Colletotrichum anthracnose, preventive spray on cucumber seedlings. Conditions: 100 = 100% disease control, 0 = no control relative to controls; for pest or weed control at 200 ppm: Colletotrichum orbiculare, 144 h, read-out: Test I disease control rating. The essentials: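 Compound was dissolved in acetone (3% of final volume), then suspended in 50/50 acetone/water with 250 ppm Trem 014 surfactant. Cucumber seedlings were sprayed to run-off as a preventive treatment at 200 ppm (equivalent to 500 g/ha) or 40 ppm.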

The mark [9] stands for this setting: 200 ppm, 100 = 100% disease control, 0 = no control relative to controls.

As to `COC[C@H](C)Nc1nccc(-c2ncnc(Nc3ccnc(Cl)c3)n2)n1` [Compound 27], the “Test C disease control rating” value in assay [1] came to 99%. Moreover, the “Test B disease control rating” value in assay [2] is 100%. Besides, in assay [3] (40 ppm (marked *)), the “Test H disease control rating” value was 100* %. The “Test F disease control rating” value in assay [4] (setting [9]) is reported as 94%. Further, in assay [5], the “Test A disease control rating” value worked out at 0%. Moreover, the “Test E disease control rating” value in assay [6] (setting [9]) was 97%. The “Test D disease control rating” value in assay [7] is given as 75%.

For the compound `COC[C@H](C)Nc1nccc(-c2ncnc(Nc3cc(Cl)cc(Cl)c3)n2)n1` [Compound 28], the “Test C disease control rating” value in assay [1] amounted to 99%. In addition, in assay [2], the “Test B disease control rating” value is given as 73%. Besides, the “Test H disease control rating” value in assay [3] (setting [9]) came to 85%. Moreover, in assay [4] (40 ppm (marked *)), the “Test F disease control rating” value was 84* %. Moreover, the “Test E disease control rating” value in assay [6] (setting [9]) turned out to be 90%. Further, in assay [7], the “Test D disease control rating” value worked out at 0%. Further, in assay [8] (200 ppm), the “Test I disease control rating” value was 96%.

Consider `COCC(C)(C)Nc1nccc(-c2ncnc(Nc3cc(F)cc(F)c3)n2)n1` [Compound 30], for which, in assay [1], the “Test C disease control rating” value was 100%. The “Test B disease control rating” value in assay [2] is 99%. Further, the “Test H disease control rating” value in assay [3] (40 ppm (marked *)) is reported as 87* %. In addition, the “Test F disease control rating” value in assay [4] (setting [9]) is recorded as 96%. In assay [5], the “Test A disease control rating” value worked out at 67%. Further, the “Test E disease control rating” value in assay [6] (setting [9]) stood at 91%. Further, the “Test D disease control rating” value in assay [7] stood at 88%.

Turning to `COC[C@H](C)Nc1nccc(-c2ncnc(Nc3ccnc(F)c3)n2)n1` [Compound 31], the “Test C disease control rating” value in assay [1] was found to be 100%. For the same compound, the “Test B disease control rating” value in assay [2] came out at 100%. Further, the “Test H disease control rating” value in assay [3] (setting [9]) is listed as 92%. For the same compound, in assay [4] (setting [9]), the “Test F disease control rating” value amounted to 99%. Besides, the “Test A disease control rating” value in assay [5] is on record as 0%. In addition, in assay [6] (setting [9]), the “Test E disease control rating” value was 89%. In addition, the “Test D disease control rating” value in assay [7] is listed as 88%.

Take `COC(C)(C)Nc1nccc(-c2ncnc(Nc3cc(F)cc(F)c3)n2)n1` [Compound 32]: the “Test C disease control rating” value in assay [1] is given as 100%. The “Test B disease control rating” value in assay [2] is 99%. For the same compound, in assay [3] (setting [9]), the “Test H disease control rating” value stood at 99%. For the same compound, the “Test F disease control rating” value in assay [4] (setting [9]) turned out to be 94%. Besides, the “Test A disease control rating” value in assay [5] amounted to 0%. The “Test E disease control rating” value in assay [6] (setting [9]) is on record as 38%. In assay [7], the “Test D disease control rating” value was determined as 39%.

Consider `CC(C)(C)Nc1nccc(-c2ncnc(Nc3cc(F)cc(F)c3)n2)n1` [Compound 33], for which the “Test C disease control rating” value in assay [1] is 99%. In assay [2], the “Test B disease control rating” value is listed as 87%. For the same compound, the “Test H disease control rating” value in assay [3] (setting [9]) is 94%. For the same compound, the “Test F disease control rating” value in assay [4] (setting [9]) is 0%. In addition, in assay [5], the “Test A disease control rating” value is reported as 0%. The “Test E disease control rating” value in assay [6] (40 ppm (marked *)) is 83* %. Further, the “Test D disease control rating” value in assay [7] is reported as 22%.

In the case of `CSCC(C)Nc1nccc(-c2ccnc(Nc3cccc(F)c3)c2)n1` (centres unmarked) [Compound 94, 4-[2-[(3-fluorophenyl)amino]-4-pyridinyl]-N-[1-methyl-2-(methylthio)ethyl]-2-pyrimidinamine], the pest or weed control at 200 ppm in assay [1] turned out to be 95%; in assay [2], 89%; in assay [3] (setting [9]), 0%; in assay [4] (setting [9]), 72%; in assay [6], 0%; in assay [7], 69%. In addition, the pest or weed control at 200 ppm in assay [8] stood at 0%.

For the compound `CSCC(C)Nc1nccc(-c2ccnc(Nc3cccc(Cl)c3)c2)n1` (centres unmarked) [Compound 95, 4-[2-[(3-chlorophenyl)amino]-4-pyridinyl]-N-[1-methyl-2-(methylthio)ethyl]-2-pyrimidinamine], the pest or weed control at 200 ppm in assay [1] turned out to be 94%; in assay [2] it was 88%; in assay [3] (setting [9]) it was 0%; in assay [4] (setting [9]) it was 0%; in assay [6] it was 0%; in assay [7], 77%. Further, the pest or weed control at 200 ppm in assay [8] amounted to 0%.

With `COC(C)CNc1nccc(-c2ccnc(Nc3cccc(F)c3)c2)n1` (centres unmarked) [Compound 96, 4-[2-[(3-fluorophenyl)amino]-4-pyridinyl]-N-(2-methoxypropyl)-2-pyrimidinamine], the pest or weed control at 200 ppm in assay [1] was 99%; in assay [2] it was 85%; in assay [3] (setting [9]), 0%; in assay [4] (setting [9]) it was 86%; in assay [6], 0%; in assay [7], 28%. Besides, in assay [8], the pest or weed control at 200 ppm turned out to be 0%.

Regarding `Clc1ccccc1Nc1cc(-c2ccnc(NC3CCOCC3)n2)ccn1` [Compound 101, 4-[2-[(2-chlorophenyl)amino]-4-pyridinyl]-N-(tetrahydro-2H-pyran-4-yl)-2-pyrimidinamine], the pest or weed control at 200 ppm turned out to be 100% in assay [1]; 99% in assay [2]; 92% in assay [3] (setting [9]); 99% in assay [4] (setting [9]); 97% in assay [6]; 53% in assay [7]. Moreover, the pest or weed control at 200 ppm in assay [8] was 97%.

Regarding `Cc1ccc(Nc2cc(-c3ccnc(NC4CCOCC4)n3)ccn2)c(Cl)c1` [Compound 102, 4-[2-[(2-chloro-4-methylphenyl)amino]-4-pyridinyl]-N-(tetrahydro-2H-pyran-4-yl)-2-pyrimidinamine], the pest or weed control at 200 ppm in assay [1] worked out at 100%; in assay [2], 93%; in assay [3] (setting [9]), 41%; in assay [4] (setting [9]), 83%; in assay [6] it was 27%; in assay [7], 3%. For the same compound, the pest or weed control at 200 ppm in assay [8] was 0%.

Take `Cc1cc(Cl)ccc1Nc1cc(-c2ccnc(NC3CCOCC3)n2)ccn1` [Compound 103, 4-[2-[(4-chloro-2-methylphenyl)amino]-4-pyridinyl]-N-(tetrahydro-2H-pyran-4-yl)-2-pyrimidinamine]: the pest or weed control at 200 ppm turned out to be 100% in assay [1]; 97% in assay [2]; 99% in assay [3] (setting [9]); 0% in assay [4] (setting [9]); 0% in assay [6]; 1% in assay [7]. Also, the pest or weed control at 200 ppm in assay [8] came to 0%.

In the case of `Cc1cccc(Cl)c1Nc1nccc(-c2ncnc(NC3CCOCC3)n2)n1` [Compound 104, 4-[2-[(2-chloro-6-methylphenyl)amino]-4-pyrimidinyl]-N-(tetrahydro-2H-pyran-4yl)-1,3,5-triazin-2-amine], the pest or weed control at 200 ppm in assay [1] came to 94%; in assay [2] it was 99%; in assay [3] (setting [9]), 0%; in assay [4] (setting [9]) it was 0%; in assay [6] it was 0%; in assay [7], 10%. Moreover, the pest or weed control at 200 ppm in assay [8] turned out to be 0%.

Regarding `COCC(C)Nc1cc(-c2ccnc(Nc3c(C)cccc3Cl)n2)ncn1` (centres unmarked) [Compound 110, N^2-(2-chloro-6-methylphenyl)-N^6′-(2-methoxy-1-methylethyl) [4,4′-bipyrimidine]-2,6′-diamine], the pest or weed control at 200 ppm in assay [1] was determined as 60%; in assay [2], 89%; in assay [3] (setting [9]), 89%; in assay [4] (setting [9]), 65%; in assay [6] it was 0%; in assay [7], 9%. Also, the pest or weed control at 200 ppm in assay [8] was determined as 97%.
